Test results: patent US7829560B2, “1,4-disubstituted naphthalenes as inhibitors of P38 MAP kinase” (Arqule, Inc., priority 2004, dated 2010)

How the values were obtained:
p38α = target: T1, p38α (Homo sapiens, UniProt Q16539); test: p38 MAP Kinase assay: inhibition of ATF2 phosphorylation, ELISA; assay type: biochemical; conditions: ATF2 phosphorylation; read-out: [ENZ] P38 ALPHA, IC50, ELISA
T1 construct: p38 MAP Kinases are recombinant human full-length proteins with an amino-terminal GST fusion; GST (N); purchased Upstate Biotechnology Inc; host or cells: E. coli
T1 sequence (Q16539 whole entry, the tested form may be a part): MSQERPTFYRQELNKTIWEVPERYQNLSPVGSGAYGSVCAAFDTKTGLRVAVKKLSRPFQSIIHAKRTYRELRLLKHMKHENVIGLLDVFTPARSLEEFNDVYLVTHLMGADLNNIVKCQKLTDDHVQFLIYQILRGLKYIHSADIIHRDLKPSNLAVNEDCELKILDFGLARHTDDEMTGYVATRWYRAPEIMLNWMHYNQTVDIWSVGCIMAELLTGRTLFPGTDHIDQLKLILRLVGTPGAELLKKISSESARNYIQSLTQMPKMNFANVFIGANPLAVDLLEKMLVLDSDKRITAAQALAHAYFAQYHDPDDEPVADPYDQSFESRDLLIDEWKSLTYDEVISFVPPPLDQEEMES
Procedure, shortened: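 GST-tagged full-length human p38 MAP kinase with GST-ATF2 (aa 19–96; 1.25 μM) and 40 μM ATP in HEPES pH 7.5 buffer, without (Method I) or with (Method II) 1% human serum albumin. Compound pre-incubated 15 min at room temperature; reaction 30 min at 37 °C; ATF2 Thr69 phosphorylation measured by ELISA (A450).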

[1] = system: TNFα release from THP-1 cells; test: Inhibition of TNFα release from LPS-stimulated THP-1 cells, ELISA; assay type: cell-based; conditions: Homo sapiens, THP-1, THP-1 cells, read-out: [CELL] THP-1, IC50, TNF ALPHA, ELISA
Procedure, shortened: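 Human THP-1 monocytes, 10^6 cells/ml in RPMI with 10% FBS, no serum or 1% HSA, preincubated 30 min at 37 °C with compound (≤0.5% DMSO), then stimulated with 10 μg/ml LPS for 18 h. Supernatant TNFα measured by ELISA; IC50 from non-linear dose-response regression.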

Row | Structure (SMILES) | IC50 (p38α) [nM] | IC50 [1] [nM] | melting point [°C]
1 | O=C(Nc1ccc(Oc2ccnc(NCCN3CCOCC3)n2)c2ccccc12)c1cc(F)cc(N2CCOCC2)c1 [Compound B326, 3-Fluoro-5-morpholin-4-yl-N-[4-({2-[(2-morpholin-4-ylethyl)amino]pyrimidin-4-yl}oxy)-1-naphthyl]benzamide] | 3.1 | 76.8 | 112 to 114
2 | O=C(Nc1ccc(OCc2ccncc2)c2ccccc12)c1cc(F)cc(OC2CCCCC2)c1 [Compound B235, 3-(Cyclohexyloxy)-5-fluoro-N-[4-(pyridin-4-ylmethoxy)-1-naphthyl]benzamide] | 125 | 557 | 176 to 178
3 | O=C(Nc1ccc(Oc2ccnc(NCC3CCCO3)n2)c2ccccc12)c1cc(F)cc(N2CCOCC2)c1 (stereo not drawn) [Compound B327, 3-Fluoro-5-morpholin-4-yl-N-[4-({2-[(tetrahydrofuran-2-ylmethyl)amino]pyrimidin-4-yl}oxy)-1-naphthyl]benzamide] | 2.1 | 24.8 | 103 to 105
4 | CC1CCN(c2cc(F)cc(C(=O)Nc3ccc(OCc4n[nH]c(=O)n4-c4ccccc4)c4ccccc34)c2)CC1 [Compound B263, 3-Fluoro-5-(4-methyl-piperidin-1-yl)-N-[4-(5-oxo-4-phenyl-4,5-dihydro-1H-[1,2,4]triazol-3-ylmethoxy)-naphthalen-1-yl]-benzamide] | 5080 | 4260 | 140 to 143
5 | O=C(Nc1ccc(Oc2ccnc(NCCO)n2)c2ccccc12)c1cc(F)cc(N2CCOCC2)c1 [Compound B252, 3-Fluoro-N-[4-({2-[(2-hydroxyethyl)amino]pyrimidin-4-yl}oxy)-1-naphthyl]-5-morpholin-4-ylbenzamide] | 31.9 | 30.8 | 127 to 129
6 | CCn1c(COc2ccc(NC(=O)c3cc(F)cc(N4CCC(C)CC4)c3)c3ccccc23)n[nH]c1=O [Compound B220, N-[4-(4-Ethyl-5-oxo-4,5-dihydro-1H-[1,2,4]triazol-3-ylmethoxy)-naphthalen-1-yl]-3-fluoro-5-(4-methyl-piperidin-1-yl)-benzamide] | 145 | 2870 | 240 to 241
7 | COCCNc1nccc(Oc2ccc(NC(=O)c3cc(F)cc(N4CCOCC4)c3)c3ccccc23)n1 [Compound B319, 3-Fluoro-N-[4-({2-[(2-methoxyethyl)amino]pyrimidin-4-yl}oxy)-1-naphthyl]-5-morpholin-4-ylbenzamide] | 1 | 59.3 | 95 to 97
8 | CSc1nccc(-c2ccc(NC(=O)c3cc(F)cc(N4CCOCC4)c3)c3ccccc23)n1 [Compound B270, 3-Fluoro-N-[4-(2-methylsulfanyl-pyrimidin-4-yl)-naphthalen-1-yl]-5-morpholin-4-yl-benzamide] | 1650 | 6420 | 135 to 138
9 | O=C(Nc1ccc(OCCN2CCOCC2)c2ccccc12)c1cc(F)cc(N2CCCCC2)c1 [Compound B66, 3-Fluoro-N-[4-(2-morpholin-4-ylethoxy)-1-naphthyl]-5-piperidin-1-ylbenzamide] | 112 | 6050 | 150 to 151
10 | CC1CCN(c2cc(F)cc(C(=O)Nc3ccc(OCCN4CCOCC4)c4ccccc34)c2)CC1 [Compound B184, 3-Fluoro-5-(4-methylpiperidin-1-yl)-N-[4-(2-morpholin-4-ylethoxy)-1-naphthyl]benzamide] | 1070 | 6990 | 116 to 118
11 | CC1CCC(Oc2cc(F)cc(C(=O)Nc3ccc(OCCN4CCOCC4)c4ccccc34)c2)C1 (stereo not drawn) [Compound B227, 3-Fluoro-5-[(3-methylcyclopentyl)oxy]-N-[4-(2-morpholin-4-ylethoxy)-1-naphthyl]benzamide] | 808 | 4120 | 65 to 66
12 | O=C(Nc1ccc(OCCN2CCOCC2)c2ccccc12)c1ccc2snnc2c1 [Compound B50, N-[4-(2-Morpholin-4-ylethoxy)-1-naphthyl]-1,2,3-benzothiadiazole-5-carboxamide] | 1240 | 9180 | 188 to 190

The remaining lines, values ahead:

Row | IC50 (p38α) [nM] | IC50 [1] [nM] | melting point [°C] | Structure (SMILES)
13 | 151 | 1120 | 93 to 94 | CC1CCCN1c1nccc(Oc2ccc(NC(=O)c3cc(F)cc(N4CCCCC4)c3)c3ccccc23)n1 (stereo not drawn) [Compound B404, 3-Fluoro-N-(4-{[2-(2-methylpyrrolidin-1-yl)pyrimidin-4-yl]oxy}-1-naphthyl)-5-piperidin-1-ylbenzamide]
14 | 102 | 538 | 155 to 156 | CN(Cc1ccco1)c1nccc(Oc2ccc(NC(=O)c3cc(F)cc(N4CCCCC4)c3)c3ccccc23)n1 [Compound B418, 3-Fluoro-N-[4-({2-[(2-furylmethyl)(methyl)amino]pyrimidin-4-yl}oxy)-1-naphthyl]-5-piperidin-1-ylbenzamide]
15 | 4.3 | 147 | 87 to 88 | COCCNc1nccc(Oc2ccc(NC(=O)c3cc(F)cc(N4CCCCC4)c3)c3ccccc23)n1 [Compound B374, 3-Fluoro-N-[4-({2-[(2-methoxyethyl)amino]pyrimidin-4-yl}oxy)-1-naphthyl]-5-piperidin-1-ylbenzamide]
16 | 27.3 | 412 | 118 to 120 | C[C@@H]1CN(c2nccc(Oc3ccc(NC(=O)c4cc(F)cc(N5CCOCC5)c4)c4ccccc34)n2)C[C@H](C)O1 [Compound B364, N-[4-({2-[(2R,6S)-2,6-Dimethylmorpholin-4-yl]pyrimidin-4-yl}oxy)-1-naphthyl]-3-fluoro-5-morpholin-4-ylbenzamide]
17 | 42.7 | 102 | 101 to 102 | CC1CCC(Nc2nccc(Oc3ccc(NC(=O)c4cc(F)cc(N5CCCCC5)c4)c4ccccc34)n2)CC1 (stereo not drawn) [Compound B388, 3-Fluoro-N-[4-({2-[(4-methylcyclohexyl)amino]pyrimidin-4-yl}oxy)-1-naphthyl]-5-piperidin-1-ylbenzamide]
18 | 5.8 | 78 | 196 to 197 | O=C(Nc1ccc(Oc2ccnc(N3CCC3)n2)c2ccccc12)c1cc(F)cc(N2CCOCC2)c1 [Compound B363, N-{4-[(2-azetidin-1-ylpyrimidin-4-yl)oxy]-1-naphthyl}-3-fluoro-5-morpholin-4-ylbenzamide]
19 | 11.4 | 311 | 112 to 114 | O=C(Nc1ccc(Oc2ccnc(NC3CCC3)n2)c2ccccc12)c1cc(F)cc(N2CCCCC2)c1 [Compound B383, N-(4-{[2-(Cyclobutylamino)pyrimidin-4-yl]oxy}-1-naphthyl)-3-fluoro-5-piperidin-1-ylbenzamide]
20 | 13.3 | 79.6 | 185 to 186 | CCN1CCN(c2nccc(Oc3ccc(NC(=O)c4cc(F)cc(N5CCOCC5)c4)c4ccccc34)n2)CC1 [Compound B345, N-(4-{[2-(4-Ethylpiperazin-1-yl)pyrimidin-4-yl]oxy}-1-naphthyl)-3-fluoro-5-morpholin-4-ylbenzamide]
21 | 28 | 56.7 | 106 to 108 | CN(C)C1CCN(c2nccc(Oc3ccc(NC(=O)c4cc(F)cc(N5CCOCC5)c4)c4ccccc34)n2)C1 (stereo not drawn) [Compound B365, N-[4-({2-[3-(Dimethylamino)pyrrolidin-1-yl]pyrimidin-4-yl}oxy)-1-naphthyl]-3-fluoro-5-morpholin-4-ylbenzamide]
22 | 5.7 | 309 | 182 to 184 | O=C(Nc1ccc(Oc2ccnc(N3CCC(O)CC3)n2)c2ccccc12)c1cc(F)cc(N2CCCCC2)c1 [Compound B387, 3-Fluoro-N-(4-{[2-(4-hydroxypiperidin-1-yl)pyrimidin-4-yl]oxy}-1-naphthyl)-5-piperidin-1-ylbenzamide]
23 | 7.4 | 565 | 102 to 104 | CC(=O)N1CCN(c2nccc(Oc3ccc(NC(=O)c4cc(F)cc(N5CCCCC5)c4)c4ccccc34)n2)CC1 [Compound B400, N-(4-{[2-(4-Acetylpiperazin-1-yl)pyrimidin-4-yl]oxy}-1-naphthyl)-3-fluoro-5-piperidin-1-ylbenzamide]
24 | 587 | 780 | 142 to 143 | CSc1nccc(Oc2ccc(NC(=O)c3cc(F)cc(N4CCC(C)CC4)c3)c3ccccc23)n1 [Compound B247, 3-Fluoro-5-(4-methylpiperidin-1-yl)-N-(4-{[2-(methylthio)pyrimidin-4-yl]oxy}-1-naphthyl)benzamide]
25 | 30.4 | 202 | 93 to 94 | CN(C)[C@@H]1CCN(c2nccc(Oc3ccc(NC(=O)c4cc(F)cc(N5CCCCC5)c4)c4ccccc34)n2)C1 [Compound B405, N-[4-({2-[(3R)-3-(Dimethylamino)pyrrolidin-1-yl]pyrimidin-4-yl}oxy)-1-naphthyl]-3-fluoro-5-piperidin-1-ylbenzamide]
26 | 3 | 115 | 88 to 89 | O=C(Nc1ccc(Oc2ccnc(NCCN3CCCCC3)n2)c2ccccc12)c1cc(F)cc(N2CCCCC2)c1 [Compound B390, 3-Fluoro-5-piperidin-1-yl-N-[4-({2-[(2-piperidin-1-ylethyl)amino]pyrimidin-4-yl}oxy)-1-naphthyl]benzamide]
